Source: patent publication US7223773B2, “4-oxoquinolizine antibacterial agent having 2-pyridone skeleton as partial structure” (Salo Pharmaceutical Co., Ltd., priority 2001, dated 2007)
Values after ≈ are worked out from the molar mass of the structure shown. Where two headings read alike, the source gives them in different places.

Tests used:
Assay type in all cases: cell-based
[1] = test system: Bacteroides fragilis GAI 0675; assay: in vitro antibacterial activity on anaerobic bacteria (MIC); conditions: GAI0675; Bacteroides fragilis GAI 0675, anaerobic; read-out: Antimicrobial spectrum MIC
Procedure: (§1) The in vitro antibacterial activities of the compounds provided by the present invention were tested by a standard method of Chemotherapy Society of Japan, i.e. an agar plate dilution method disclosed in CHEMOTHERAPY Vol. 29, pages 76–79, 1981, and the activities of them on anaerobic bacteria were tested by a method disclosed in CHEMOTHERAPY Vol. 27, 559–590, 1979. The results were shown in terms of the minimum inhibition concentration (MIC, μg/ml) for the growth of the bacteria.

[2] = test system: Bacteroides thetaiotaomicron ATCC 29741; assay: as above
Procedure: as §1

[3] = test system: Propionibacterium acnes JCM 6425; assay: as above; conditions: Cutibacterium acnes, JCM6425; Propionibacterium acnes JCM 6425, anaerobic; read-out: Antimicrobial spectrum MIC
Procedure: as §1

[4] = test system: Staphylococcus aureus IFO 13276; assay: in vitro antibacterial activity, agar plate dilution method (MIC); conditions: IFO13276, read-out: Antimicrobial spectrum MIC
Procedure: as §1

[5] = test system: Streptococcus pneumoniae IID 553; assay: as above; conditions: IID553, read-out: Antimicrobial spectrum MIC
Procedure: as §1

[6] = test system: Micrococcus luteus KI 3122; assay: as above; conditions: KI3122, read-out: Antimicrobial spectrum MIC
Procedure: as §1

[7] = test system: Branhamella catarrhalis IID 5233; assay: as above; conditions: Moraxella catarrhalis, IID5233, read-out: Antimicrobial spectrum MIC
Procedure: as §1

[8] = test system: Staphylococcus aureus JCM 2874; assay: as above; conditions: JCM2874, read-out: Antimicrobial spectrum MIC
Procedure: as §1

[9] = test system: Klebsiella pneumoniae IID 865; assay: as above; conditions: IID865, read-out: Antimicrobial spectrum MIC
Procedure: as §1

[10] = test system: Staphylococcus aureus Clin-211(MRSA); assay: as above; conditions: read-out: Antimicrobial spectrum MIC
Procedure: as §1

[11] = test system: Pseudomonas aeruginosa CSJ 1853; assay: as above; conditions: CSJ1853, read-out: Antimicrobial spectrum MIC
Procedure: as §1

[12] = test system: Enterococcus faecalis CSJ 1212; assay: as above; conditions: CSJ1212, read-out: Antimicrobial spectrum MIC
Procedure: as §1

[13] = test system: Staphylococcus aureus IID 803(Smith); assay: as above; conditions: IID803, read-out: Antimicrobial spectrum MIC
Procedure: as §1

[14] = test system: Staphylococcus epidermidis IFO 12993; assay: as above; conditions: IFO12993, read-out: Antimicrobial spectrum MIC
Procedure: as §1

[15] = test system: Enterococcus faecalis RIMD 3116001; assay: as above; conditions: RIMD3116001, read-out: Antimicrobial spectrum MIC
Procedure: as §1

[16] = test system: Escherichia coli IFO 12734; assay: as above; conditions: IFO12734, read-out: Antimicrobial spectrum MIC
Procedure: as §1

[17] = test system: Bacillus subtilis JCM 2499; assay: as above; conditions: JCM2499, read-out: Antimicrobial spectrum MIC
Procedure: as §1

[18] = test system: Haemophilus influenzae IID 984; assay: as above; conditions: IID984, read-out: Antimicrobial spectrum MIC
Procedure: as §1

[19] = ATCC29741, Bacteroides thetaiotaomicron ATCC 29741, anaerobic, read-out: Antimicrobial spectrum MIC

| SMILES | MIC [1] | MIC [2, 19] | MIC [3] | MIC [4] | MIC [5] | MIC [6] | MIC [7] | MIC [8] | MIC [9] | MIC [10] | MIC [11] | MIC [12] | MIC [13] | MIC [14] | MIC [15] | MIC [16] | MIC [17] | MIC [18] | MIC ([2]; Bacteroides thetaiotaomicron, ATCC29741, read-out: Antimicrobial spectrum MIC) |
| --- | --- | --- | --- | --- | --- | --- | --- | --- | --- | --- | --- | --- | --- | --- | --- | --- | --- | --- | --- |
| Cc1c(-c2cccc(CN(C)C)c2)ccn2c(=O)c(C(=O)O)cc(C3CC3)c12 [Example 117, 1-Cyclopropyl-8-(3-dimethylaminomethylphenyl)-9-methyl-4-oxo-4H-quinolizine-3-carboxylic acid] | 0.5 µg/mL (≈ 1.33 µM) | 1 µg/mL (≈ 2.66 µM) | 0.5 µg/mL (≈ 1.33 µM) | 0.063 µg/mL (≈ 0.167 µM) | 0.5 µg/mL (≈ 1.33 µM) | 1 µg/mL (≈ 2.66 µM) | 0.125 µg/mL (≈ 0.332 µM) | 0.125 µg/mL (≈ 0.332 µM) | 0.031 µg/mL (≈ 0.0823 µM) | 1 µg/mL (≈ 2.66 µM) | 1 µg/mL (≈ 2.66 µM) | 0.5 µg/mL (≈ 1.33 µM) | 0.063 µg/mL (≈ 0.167 µM) | 0.125 µg/mL (≈ 0.332 µM) | 1 µg/mL (≈ 2.66 µM) | 0.5 µg/mL (≈ 1.33 µM) | 0.031 µg/mL (≈ 0.0823 µM) | 0.063 µg/mL (≈ 0.167 µM) |  |
| Cc1c(-c2cccc(CN3CCNCC3)c2)ccn2c(=O)c(C(=O)O)cc(C3CC3)c12 [Example 119, 1-Cyclopropyl-9-methyl-4-oxo-8-(3-piperazin-1-ylmethylphenyl)-4H-quinolizine-3-carboxylic acid] | 1 µg/mL (≈ 2.4 µM) | 2 µg/mL (≈ 4.79 µM) | 2 µg/mL (≈ 4.79 µM) | 0.063 µg/mL (≈ 0.151 µM) | 0.5 µg/mL (≈ 1.2 µM) | 1 µg/mL (≈ 2.4 µM) | 0.25 µg/mL (≈ 0.599 µM) | 0.063 µg/mL (≈ 0.151 µM) | 0.063 µg/mL (≈ 0.151 µM) | 1 µg/mL (≈ 2.4 µM) | 4 µg/mL (≈ 9.58 µM) | 0.5 µg/mL (≈ 1.2 µM) | 0.063 µg/mL (≈ 0.151 µM) | 0.125 µg/mL (≈ 0.299 µM) | 1 µg/mL (≈ 2.4 µM) | 1 µg/mL (≈ 2.4 µM) | 0.016 µg/mL (≈ 0.0383 µM) | 0.25 µg/mL (≈ 0.599 µM) |  |
| COc1ccc(-c2ccn3c(=O)c(C(=O)O)cc(C4CC4)c3c2C)cc1CN [Example 121, 8-(3-Aminomethyl-4-methoxyphenyl)-1-cyclopropyl-9-methyl-4-oxo-4H-quinolizine-3-carboxylic acid] | 0.5 µg/mL (≈ 1.32 µM) | 4 µg/mL (≈ 10.6 µM) | 0.25 µg/mL (≈ 0.661 µM) | 0.016 µg/mL (≈ 0.0423 µM) | 0.031 µg/mL (≈ 0.0819 µM) | 0.125 µg/mL (≈ 0.33 µM) | 0.063 µg/mL (≈ 0.166 µM) | 0.016 µg/mL (≈ 0.0423 µM) | ≤ 0.004 µg/mL | 0.25 µg/mL (≈ 0.661 µM) | 0.5 µg/mL (≈ 1.32 µM) | 0.031 µg/mL (≈ 0.0819 µM) | 0.016 µg/mL (≈ 0.0423 µM) | 0.031 µg/mL (≈ 0.0819 µM) | 0.063 µg/mL (≈ 0.166 µM) | 0.063 µg/mL (≈ 0.166 µM) | ≤ 0.004 µg/mL | 0.008 µg/mL (≈ 0.0211 µM) |  |
| C[C@H]1COc2c(N3CCN(C)CC3)c(F)cc3c(=O)c(C(=O)O)cn1c23 [Levofloxacin, reference compound] | 0.5 µg/mL (≈ 1.38 µM) |  | 0.25 µg/mL (≈ 0.692 µM) | 0.125 µg/mL (≈ 0.346 µM) | 0.5 µg/mL (≈ 1.38 µM) | 1 µg/mL (≈ 2.77 µM) | 0.031 µg/mL (≈ 0.0858 µM) | 0.25 µg/mL (≈ 0.692 µM) | 0.008 µg/mL (≈ 0.0221 µM) | 4 µg/mL (≈ 11.1 µM) | 0.5 µg/mL (≈ 1.38 µM) | 0.5 µg/mL (≈ 1.38 µM) | 0.125 µg/mL (≈ 0.346 µM) | 0.25 µg/mL (≈ 0.692 µM) | 1 µg/mL (≈ 2.77 µM) | 0.031 µg/mL (≈ 0.0858 µM) | 0.031 µg/mL (≈ 0.0858 µM) | 0.016 µg/mL (≈ 0.0443 µM) | 4 µg/mL (≈ 11.1 µM) |

The next lines start with results.

| MIC [1] | MIC [2, 19] | MIC [3] | MIC [4] | MIC [5] | MIC [6] | MIC [7] | MIC [8] | MIC [9] | MIC [10] | MIC [11] | MIC [12] | MIC [13] | MIC [14] | MIC [15] | MIC [16] | MIC [17] | MIC [18] | SMILES | MIC ([2]; Bacteroides thetaiotaomicron, ATCC29741, read-out: Antimicrobial spectrum MIC) |
| --- | --- | --- | --- | --- | --- | --- | --- | --- | --- | --- | --- | --- | --- | --- | --- | --- | --- | --- | --- |
| 0.063 µg/mL (≈ 0.181 µM) | 0.25 µg/mL (≈ 0.718 µM) | 0.031 µg/mL (≈ 0.089 µM) | 0.008 µg/mL (≈ 0.023 µM) | 1 µg/mL (≈ 2.87 µM) | 0.125 µg/mL (≈ 0.359 µM) | 0.063 µg/mL (≈ 0.181 µM) | 0.008 µg/mL (≈ 0.023 µM) | 0.016 µg/mL (≈ 0.0459 µM) | 0.063 µg/mL (≈ 0.181 µM) | 1 µg/mL (≈ 2.87 µM) | 0.5 µg/mL (≈ 1.44 µM) | 0.008 µg/mL (≈ 0.023 µM) | 0.016 µg/mL (≈ 0.0459 µM) | 1 µg/mL (≈ 2.87 µM) | 0.125 µg/mL (≈ 0.359 µM) | ≤ 0.004 µg/mL | 0.125 µg/mL (≈ 0.359 µM) | Cc1ccc(-c2ccn3c(=O)c(C(=O)O)cc(C4CC4)c3c2C)cc1N [Example 63, 8-(3-Amino-4-methylphenyl)-1-cyclopropyl-9-methyl-4-oxo-4H-quinolizine-3-carboxylic acid] |  |
| 0.5 µg/mL (≈ 1.49 µM) | 1 µg/mL (≈ 2.98 µM) | 0.5 µg/mL (≈ 1.49 µM) | 0.031 µg/mL (≈ 0.0924 µM) | 0.5 µg/mL (≈ 1.49 µM) | 0.5 µg/mL (≈ 1.49 µM) | 0.125 µg/mL (≈ 0.373 µM) | 0.063 µg/mL (≈ 0.188 µM) | 0.016 µg/mL (≈ 0.0477 µM) | 0.5 µg/mL (≈ 1.49 µM) | 1 µg/mL (≈ 2.98 µM) | 0.25 µg/mL (≈ 0.745 µM) | 0.063 µg/mL (≈ 0.188 µM) | 0.125 µg/mL (≈ 0.373 µM) | 0.5 µg/mL (≈ 1.49 µM) | 0.25 µg/mL (≈ 0.745 µM) | 0.016 µg/mL (≈ 0.0477 µM) | 0.031 µg/mL (≈ 0.0924 µM) | Cc1c(-c2ccc(N)nc2)ccn2c(=O)c(C(=O)O)cc(C3CC3)c12 [Example 89, 8-(6-Aminopyridin-3-yl)-1-cyclopropyl-9-methyl-4-oxo-4H-quinolizine-3-carboxylic acid] |  |
